Assay results from publication PMC11876601 (Molecular Systems Biology, 2025).

Key:
ACVR1B = system: ACVR1B; design: method as in Klaeger et al. (2017); settings: lysate 4 cell line mix (Colo205, K-562, MV-4-11, and SK-N-BE(2)), Kinobeads y, ref Klaeger et al. (2017); cited from earlier work
TBKBP1 = system: TBKBP1; design: method as in Klaeger et al. (2017); settings: lysate 4 cell line mix (Colo205, K-562, MV-4-11, and SK-N-BE(2)), Kinobeads y, ref Klaeger et al. (2017); cited from earlier work
TGFBR1 = system: TGFBR1; design: method as in Klaeger et al. (2017); settings: lysate 4 cell line mix (Colo205, K-562, MV-4-11, and SK-N-BE(2)), Kinobeads y, ref Klaeger et al. (2017); cited from earlier work
TBK1 = system: TBK1; design: method as in Klaeger et al. (2017); settings: lysate 4 cell line mix (Colo205, K-562, MV-4-11, and SK-N-BE(2)), Kinobeads y, ref Klaeger et al. (2017); cited from earlier work
ACVR1 = system: ACVR1; design: method as in Klaeger et al. (2017); settings: lysate 4 cell line mix (Colo205, K-562, MV-4-11, and SK-N-BE(2)), Kinobeads y, ref Klaeger et al. (2017); cited from earlier work
GAK = settings: 5 cell line mix lysate, Kinobeads ε, ref Reinecke et al. (2023), cited from earlier work
CSNK2A1;CSNK2A3 = settings: CSNK2A1;CSNK2A3, 5 cell line mix lysate, Kinobeads ε, ref Reinecke et al. (2023), cited from earlier work
MAP3K11 = settings: MAP3K11, 5 cell line mix lysate, Kinobeads ε, ref Reinecke et al. (2023), cited from earlier work
RPS6KA6 = system: RPS6KA6; design: method as in Reinecke et al. (2023); settings: RPS6KA6, 5 cell line mix lysate, Kinobeads ε, ref Reinecke et al. (2023), cited from earlier work
NUAK2 = system: NUAK2; design: method as in Reinecke et al. (2023); settings: NUAK2, 5 cell line mix lysate, Kinobeads ε, ref Reinecke et al. (2023), cited from earlier work
FGFR3;FGFR4 = system: FGFR3;FGFR4; design: method as in Reinecke et al. (2023); settings: FGFR3;FGFR4, 5 cell line mix lysate, Kinobeads ε, ref Reinecke et al. (2023), cited from earlier work
MAP3K5 = system: MAP3K5; design: method as in Reinecke et al. (2023); settings: MAP3K5, 5 cell line mix lysate, Kinobeads ε, ref Reinecke et al. (2023), cited from earlier work
BTK = target: BTK; design: method as in Reinecke et al. (2023); settings: 5 cell line mix lysate, Kinobeads ε, ref Reinecke et al. (2023), cited from earlier work
PIK3C2A = PIK3C2A (Homo sapiens, UniProt O00443); experiment: biochemical
Description: This was followed by incubation with Kinobeads ε (17.5 µl of settled beads) for 30 min at 4 °C to enrich kinases. […] Enriched proteins were reduced with 50 mM DTT in 8 M urea, 40 mM Tris-HCl, pH 7.4 for 30 min at room temperature, and alkylated with 55 mM chloroacetamide. After reducing the urea concentration to 1–2 M, proteins were digested with trypsin at 37 °C for 16 h. Subsequently, eluted peptides were desalted using SepPak tC18 µElution plates (Waters), freeze-dried by vacuum centrifugation, and stored at −20 °C.
For LC-MS/MS, dried peptides were reconstituted in 0.1% formic acid and analyzed on a Dionex Ultimate3000 nano HPLC (Thermo Scientific) coupled to an Orbitrap Fusion Tribrid mass spectrometer (Thermo Scientific), which was run in data-dependent mode. […]
Oxidized methionine and N-terminal acetylation were set as variable modification, and cysteine carbamidomethylation was set as fixed modification. Label-free quantification (LFQ) and match-between-runs were enabled. […]
Proteins were filtered by potential contaminants, reversed hits and proteins identified only by site. Residual binding of proteins was calculated from LFQ intensities as the ratio between drug doses and vehicle. […] Only kinases quantified with at least 4 unique peptides in the vehicle experiment were considered. […]

PIK3C2A, sequence (O00443 whole entry): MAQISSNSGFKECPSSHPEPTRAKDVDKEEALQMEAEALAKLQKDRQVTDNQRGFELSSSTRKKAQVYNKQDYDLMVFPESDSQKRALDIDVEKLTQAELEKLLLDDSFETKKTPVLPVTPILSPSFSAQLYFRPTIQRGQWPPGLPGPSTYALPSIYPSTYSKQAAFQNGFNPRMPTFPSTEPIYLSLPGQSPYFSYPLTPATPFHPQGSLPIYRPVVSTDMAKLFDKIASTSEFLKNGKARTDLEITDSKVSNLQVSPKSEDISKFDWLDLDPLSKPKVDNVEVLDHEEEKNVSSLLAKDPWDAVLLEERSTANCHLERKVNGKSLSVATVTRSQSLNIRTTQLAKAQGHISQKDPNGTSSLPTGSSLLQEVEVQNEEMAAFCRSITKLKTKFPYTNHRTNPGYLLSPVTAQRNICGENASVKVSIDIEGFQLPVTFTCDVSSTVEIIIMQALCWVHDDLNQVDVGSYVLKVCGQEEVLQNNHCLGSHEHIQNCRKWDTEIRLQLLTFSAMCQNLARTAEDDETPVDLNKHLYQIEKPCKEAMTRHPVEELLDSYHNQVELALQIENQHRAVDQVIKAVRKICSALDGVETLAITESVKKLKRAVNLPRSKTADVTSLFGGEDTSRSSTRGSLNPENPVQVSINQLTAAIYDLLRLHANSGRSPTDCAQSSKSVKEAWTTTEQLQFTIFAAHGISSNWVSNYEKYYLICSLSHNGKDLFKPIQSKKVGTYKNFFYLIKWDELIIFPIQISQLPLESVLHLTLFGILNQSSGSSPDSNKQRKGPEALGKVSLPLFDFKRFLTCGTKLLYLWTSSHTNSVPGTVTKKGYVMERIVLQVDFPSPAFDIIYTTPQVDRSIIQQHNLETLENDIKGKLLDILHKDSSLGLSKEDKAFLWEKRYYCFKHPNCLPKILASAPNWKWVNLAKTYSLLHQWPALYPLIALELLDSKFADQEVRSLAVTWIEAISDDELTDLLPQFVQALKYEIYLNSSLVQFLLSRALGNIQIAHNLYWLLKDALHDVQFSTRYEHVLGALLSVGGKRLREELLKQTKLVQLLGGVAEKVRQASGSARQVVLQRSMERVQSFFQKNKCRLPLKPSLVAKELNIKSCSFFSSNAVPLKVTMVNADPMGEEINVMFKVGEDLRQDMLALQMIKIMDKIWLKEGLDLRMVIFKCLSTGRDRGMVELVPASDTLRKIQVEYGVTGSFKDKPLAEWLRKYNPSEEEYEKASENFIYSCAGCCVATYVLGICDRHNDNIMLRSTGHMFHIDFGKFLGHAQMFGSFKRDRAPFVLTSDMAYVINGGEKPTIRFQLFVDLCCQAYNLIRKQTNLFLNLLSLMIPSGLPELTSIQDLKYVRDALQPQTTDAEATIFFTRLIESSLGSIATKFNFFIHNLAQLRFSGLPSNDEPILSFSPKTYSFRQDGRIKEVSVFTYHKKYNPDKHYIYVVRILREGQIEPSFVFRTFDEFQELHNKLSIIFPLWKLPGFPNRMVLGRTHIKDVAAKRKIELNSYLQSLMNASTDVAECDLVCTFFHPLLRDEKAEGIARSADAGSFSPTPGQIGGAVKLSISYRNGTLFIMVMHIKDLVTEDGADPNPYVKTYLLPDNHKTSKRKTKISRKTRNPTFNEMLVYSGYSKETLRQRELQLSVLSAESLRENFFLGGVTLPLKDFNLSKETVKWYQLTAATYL

SMILES: C[C@]12O[C@H](C[C@]1(O)CO)n1c3ccccc3c3c4c(c5c6ccccc6n2c5c31)CNC4=O [Lestaurtinib]
- EC50 (TBKBP1): 1010 nM

SMILES: COc1cc(N2CCC(N3CCN(C)CC3)CC2)ccc1Nc1ncc(Cl)c(Nc2ccccc2P(C)(C)=O)n1 [Brigatinib]
- Kd (GAK; read-out: KDapp): 5.8 nM
- EC50 (GAK): 10.3 nM
- pKDapp (GAK): 8.24
- EC50 (CSNK2A1;CSNK2A3): 331 nM
- pKDapp (CSNK2A1;CSNK2A3): 6.48
- Kd (CSNK2A1;CSNK2A3; read-out: KDapp): 331 nM
- EC50 (MAP3K11): 3200 nM
- pKDapp (MAP3K11): 5.65
- Kd (MAP3K11; read-out: KDapp): 2230 nM
- EC50 (RPS6KA6): 93.6 nM
- pKDapp (RPS6KA6): 7.40
- Kd (RPS6KA6; read-out: KDapp): 39.5 nM
- EC50 (NUAK2): 88.5 nM
- pKDapp (NUAK2): 7.17
- Kd (NUAK2; read-out: KDapp): 68.3 nM
- EC50 (FGFR3;FGFR4): 617 nM
- pKDapp (FGFR3;FGFR4): 6.21
- Kd (FGFR3;FGFR4; read-out: KDapp): 617 nM
- EC50 (MAP3K5): 970 nM
- pKDapp (MAP3K5): 6.11
- Kd (MAP3K5; read-out: KDapp): 776 nM
- Kd (BTK; read-out: KDapp): 1480 nM
- EC50 (BTK): 3780 nM
- pKDapp (BTK): 5.83

SMILES: C[C@@H]1COCCN1c1cc(-c2ccnn2C)c2ccnc(-c3ccn[nH]3)c2n1 [Elimusertib]
- EC50 (PIK3C2A): 936 nM
- Kd (PIK3C2A; KDapp, AsPC-1 lysate): 426 nM
